Experimental findings from PubChem BioAssay AID1117337 (Cheminformatics & Chemogenomics Research Group (CCRG), …, 2015) are described below.

Usually IC50 stands for the concentration needed to halve the response being measured.

Calls of active or inactive are those of the source. How the calls were made is not given here.

The subject of this test is ADSC/ECFC co-culture, VEGF-stimulated, CD31 tube area. Briefly: inhibition of endothelial tube formation, dose response, imaging, VEGF stimulation, CD31 staining, tube area, IC50 (AID 1117337).
In the case of `COc1ccc2cc3[n+](cc2c1OC)CCc1cc2c(cc1-3)OCO2`, the IC50 is 2.68 µM.

For `Nc1nc(=S)c2[nH]cnc2[nH]1`, the IC50 was 0.622 µM.

With `CC(=O)Oc1ccccc1C(=O)Nc1ncc([N+](=O)[O-])s1`, the IC50 was 2.06 µM.

On to `O=C1C(I)=CC(=C(c2cc(I)c(O)c(I)c2)c2ccccc2C(=O)O)C=C1I`, for which the IC50 is > 10 µM (inactive).

On to `O=C1NC2CCCCN2C12CCN(CCCN1c3ccccc3CCc3ccc(Cl)cc31)CC2` (configuration not stated), for which the IC50 is > 10 µM (inactive).

With `O=S(c1cc(Cl)cc(Cl)c1O)c1cc(Cl)cc(Cl)c1O`, the IC50 is > 10 µM (inactive).

For `Nc1nc(F)nc2c1ncn2[C@@H]1O[C@H](CO)[C@@H](O)[C@@H]1O`, the IC50 is 8.45 µM (inactive).

As to `O=C1CC[C@H](C(=O)N2CCCCC2)N1`, the IC50 was > 10 µM (inactive).

Take `CCCOc1ccc2nc(NC(=O)OC)[nH]c2c1`: the IC50 was 0.328 µM.

Regarding `C[C@H](O)CN(C)C`, the IC50 was > 10 µM (inactive).

With `S=c1nc[nH]c2nc[nH]c12`, the IC50 was 0.915 µM.

On to `COC(=O)Nc1nc2ccc(S(=O)c3ccccc3)cc2[nH]1` (configuration not stated), for which the IC50 is 0.288 µM.

`CCCCCCCC[N+](C)(C)CCCCCCCC`: the IC50 is 1.39 µM.

Take `CS(=O)(=O)CCNCc1ccc(-c2ccc3ncnc(Nc4ccc(OCc5cccc(F)c5)c(Cl)c4)c3c2)o1`: the IC50 is > 10 µM (inactive).

Take `O=c1[nH]c(=O)n([C@H]2C[C@H](O)[C@@H](CO)O2)cc1I`: the IC50 was 0.681 µM.

For the compound `O=C(CCl)c1ccc(Cl)cc1Cl`, the IC50 is 2.49 µM.

As for `O=C(NC1CCN(CCc2c[nH]c3ccccc23)CC1)c1ccccc1`, the IC50 was > 10 µM (inactive).

As for `CN(Cc1cnc2nc(N)nc(N)c2n1)c1ccc(C(=O)N[C@@H](CCC(=O)O)C(=O)O)cc1`, the IC50 is > 10 µM (inactive).

With `COC1=C(OC)C(=O)C(CCCCCCCCCCO)=C(C)C1=O`, the IC50 is > 10 µM (inactive).

In the case of `CC(CC=O)CCCC(C)(C)O` (configuration not stated), the IC50 is > 10 µM (inactive).

For the compound `CC(=O)Oc1ccc(C2(c3ccc(OC(C)=O)cc3)C(=O)Nc3ccccc32)cc1`, the IC50 was > 10 µM (inactive).

In the case of `CCOC(=O)C=C(C)C=CC[C@@H](C)CCCC(C)C`, the IC50 is > 10 µM (inactive).

Take `C[C@@]12C(=O)OC(=O)[C@]1(C)C1CCC2O1`: the IC50 was 1.23 µM.

Regarding `CO[C@@]12[C@H](COC(N)=O)C3=C(C(=O)C(C)=C(N)C3=O)N1C[C@@H]1N[C@@H]12`, the IC50 was 0.102 µM.

For the compound `Clc1cc(Cl)c(OCC#CI)cc1Cl`, the IC50 is > 10 µM (inactive).

Consider `O=[N+]([O-])c1cc(I)c(O)c(I)c1`, for which the IC50 is > 10 µM (inactive).

In the case of `CC(=O)N(O)CCCCCNC(=O)CCC(=O)N(O)CCCCCNC(=O)CCC(=O)N(O)CCCCCN`, the IC50 was 4.53 µM.

On to `O=c1[nH]cc(F)c(=O)[nH]1`, for which the IC50 is > 10 µM (inactive).

In the case of `Cc1cccc(Nc2cc(Cl)nc(SCC(=O)O)n2)c1C`, the IC50 was > 10 µM (inactive).

With `O=C(O)C1CCC1`, the IC50 is > 10 µM (inactive).

`Cc1ccc(C(=O)Oc2ccc(C(O)CNC(C)(C)C)cc2OC(=O)c2ccc(C)cc2)cc1` (configuration not stated): the IC50 was > 10 µM (inactive).

Consider `Oc1c(I)cc(I)c2cccnc12`, for which the IC50 was 2.39 µM.

For the compound `CC12CCC(CC1)C(C)(C)O2`, the IC50 was > 10 µM (inactive).

For `CN[C@@H]1C[C@@H](c2ccc(Cl)c(Cl)c2)c2ccccc21`, the IC50 was > 10 µM (inactive).

Turning to `CCCCCCCCCCCCCCCC[N+](C)(C)CCN(Cc1ccc(OC)cc1)c1ncccn1`, the IC50 was 3.07 µM.

For `Clc1ccc(CSC(Cn2ccnc2)c2ccc(Cl)cc2Cl)cc1` (configuration not stated), the concentration for half-maximal inhibition (IC50) was 2.13 µM.

In the case of `COc1ccc(-c2nc3ccc(C4=NNC(=O)CC4C)cc3[nH]2)cc1` (configuration not stated), the 50% inhibitory concentration (IC50) is 2.89 µM.

For `CN1CCN(CCCN2c3ccccc3Sc3ccc(C(F)(F)F)cc32)CC1`, the IC50 is > 10 µM (inactive).

With `CCOP(=S)(OCC)SCSc1ccc(Cl)cc1`, the IC50 is > 10 µM (inactive).

Regarding `COc1cc(NCc2ccc3nc(N)nc(N)c3c2C)cc(OC)c1OC`, the half-inhibitory concentration (IC50) was 4.42 µM.

On to `CC1CCC(C(C)C)C(OC(=O)c2ccccc2O)C1` (configuration not stated), for which the IC50 is > 10 µM (inactive).

In the case of `Oc1c(I)cc(Cl)c2cccnc12`, the IC50 was > 10 µM (inactive).

Regarding `O[C@@H](CNC[C@H](O)[C@H]1CCc2cc(F)ccc2O1)[C@@H]1CCc2cc(F)ccc2O1`, the IC50 is > 10 µM (inactive).

On to `Cn1cc(S(C)=O)c(=O)c2ccc(F)cc21` (configuration not stated), for which the IC50 is > 10 µM (inactive).

For `NCCNc1ccc(NCCN)c2c1C(=O)c1ccncc1C2=O`, the IC50 was 0.0465 µM.

In the case of `C[n+]1cc2c3c(ccc2c2ccc4cc5c(cc4c21)OCO5)OCO3`, the IC50 is 0.537 µM.

`CC(C)(C)C1CCC(CC2=C(O)c3ccccc3C(=O)C2=O)CC1` (configuration not stated): the IC50 was 1.96 µM.

Take `CC[C@]1(O)C[C@H]2CN(CCc3c([nH]c4ccccc34)[C@@](C(=O)OC)(c3cc4c(cc3OC)N(C=O)[C@H]3[C@@](O)(C(=O)OC)[C@H](OC(C)=O)[C@]5(CC)C=CCN6CC[C@]43[C@@H]65)C2)C1`: the half-inhibitory concentration (IC50) is 0.0065 µM.

On to `Cc1c(O)cccc1C(=O)N[C@@H](CSc1ccccc1)[C@H](O)CN1C[C@H]2CCCC[C@H]2C[C@H]1C(=O)NC(C)(C)C`, for which the IC50 was > 10 µM (inactive).

Consider `COCC(=O)O[C@]1(CCN(C)CCCc2nc3ccccc3[nH]2)CCc2cc(F)ccc2[C@@H]1C(C)C`, for which the IC50 was > 10 µM (inactive).

For `COc1cccc2c1C(=O)c1c(O)c3c(c(O)c1C2=O)C[C@@](O)(C(=O)CO)C[C@@H]3O[C@H]1C[C@H](N)[C@H](O)[C@H](C)O1`, the IC50 is 0.0429 µM.

As for `CC(C)=CCCC(C)=CCCC(C)=CCCC=C(C)CCC=C(C)CCC=C(C)C`, the IC50 is > 10 µM (inactive).

Turning to `O=c1c(-c2ccc(O)cc2)coc2cc(O)cc(O)c12`, the IC50 is > 10 µM (inactive).

As to `CC[C@]1(O)CC[C@H]2[C@@H]3CCC4=CCCC[C@@H]4[C@H]3CC[C@@]21C`, the IC50 was 6.25 µM (inactive).

In the case of `ClC1=C(Cl)C2(Cl)C(CBr)CC1(Cl)C2(Cl)Cl` (configuration not stated), the IC50 was > 10 µM (inactive).

`CC(C)(C)c1ccc(C(O)CCCN2CCC(C(O)(c3ccccc3)c3ccccc3)CC2)cc1` (configuration not stated): the IC50 was 3.25 µM.

As for `COc1c(C)c2c(c(O)c1C/C=C(\C)CCC(=O)OCCN1CCOCC1)C(=O)OC2`, the IC50 was 1.26 µM.

Take `O=C(CCBr)N1CCN(C(=O)CCBr)CC1`: the half-maximal inhibitory concentration (IC50) is 1.37 µM.

For the compound `CCOC(=O)[C@H](CCc1ccccc1)N[C@@H](C)C(=O)N1Cc2cc(OC)c(OC)cc2C[C@H]1C(=O)O`, the IC50 is > 10 µM (inactive).

On to `N/C(=N\N=C\c1ccc(Cl)cc1)N/N=C/c1ccc(Cl)cc1`, for which the IC50 was > 10 µM (inactive).

As to `COCCOC(=O)C1=C(C)NC(C)=C(C(=O)OC/C=C/c2ccccc2)C1c1cccc([N+](=O)[O-])c1` (configuration not stated), the IC50 was 6.42 µM (inactive).

For `COc1ccc2c(c1)c1c3n2CCN(C)C3=NCC1`, the IC50 is > 10 µM (inactive).

`Cc1ccc2nc(N)[nH]c(=O)c2c1Sc1ccncc1`: the IC50 was 7.37 µM (inactive).

With `C[C@H]1O[C@@H](O[C@H]2CC[C@@]3(C)[C@H](CC[C@@H]4[C@@H]3C[C@@H](O)[C@]3(C)[C@@H](C5=CC(=O)OC5)CC[C@]43O)C2)C[C@H](O)[C@@H]1O[C@H]1C[C@H](O)[C@H](O[C@H]2C[C@H](O)[C@H](O[C@@H]3O[C@H](CO)[C@@H](O)[C@H](O)[C@H]3O)[C@@H](C)O2)[C@@H](C)O1`, the half-inhibitory concentration (IC50) is 0.0614 µM.

As to `COC(=O)Nc1nc2ccc(C(=O)C3CC3)cc2[nH]1`, the IC50 was 1.19 µM.

On to `O=C(O)CCC(=O)OC[C@@H](NC(=O)C(Cl)Cl)[C@H](O)c1ccc([N+](=O)[O-])cc1`, for which the IC50 was > 10 µM (inactive).

`CC(C)CCCC(C)NCCC(C)C` (configuration not stated): the IC50 is > 10 µM (inactive).

Consider `CSc1ccc(/C=C2/C(C)=C(CC(=O)O)c3cc(F)ccc32)cc1`, for which the IC50 was > 10 µM (inactive).

Consider `O=C(NOCC1CC1)c1ccc(F)c(F)c1Nc1ccc(I)cc1Cl`, for which the IC50 is 0.368 µM.

In the case of `COc1cc(-c2ccc(=O)[nH]n2)ccc1OC(F)F`, the IC50 is 1.22 µM.

Consider `CC(C)=CCC/C(C)=C/CC/C(C)=C/C(=O)OCC(=O)[C@@]1(O)CC[C@H]2[C@@H]3CCC4=CC(=O)C=C[C@]4(C)[C@H]3[C@@H](O)C[C@@]21C`, for which the 50% inhibitory concentration (IC50) is 3.34 µM.

As to `COc1cc(C=C2CCC/C(=C\c3ccc(O)c(OC)c3)C2=O)ccc1O`, the IC50 was > 10 µM (inactive).

Regarding `CCN(CC)C(=O)c1cccnc1`, the IC50 was > 10 µM (inactive).

Regarding `C[C@@H]1C[C@@H]([C@H](O)CC2CC(=O)NC(=O)C2)C(=O)[C@@H](C)C1`, the IC50 was 1.15 µM.

For `Cc1cc(O)c2ccccc2c1O`, the half-maximal inhibitory concentration (IC50) is 4.89 µM.

Turning to `Clc1ccccc1C(c1ccccc1)(c1ccccc1)n1ccnc1`, the IC50 is 3.04 µM.

In the case of `Cc1cc(OI)c(C(C)C)cc1-c1cc(C(C)C)c(OI)cc1C`, the IC50 is > 10 µM (inactive).

Turning to `CCCCc1ccc2nc(NC(=O)OC)[nH]c2c1`, the IC50 was 0.053 µM.

As for `Cc1cc(=O)c2c(O)c3c(O)cc(=O)c4c3c3c(cc(O)c1c23)C(C)(C)C=4O`, the IC50 was 0.101 µM.

On to `O=[N+]([O-])c1ccc(Oc2ccc(N=C=S)cc2)cc1`, for which the IC50 is 3.72 µM.

In the case of `CCOC(=O)NC(C)(C)Cc1ccc(Cl)cc1`, the IC50 was > 10 µM (inactive).

For `CO[C@@H]1[C@@H](OC)[C@H](C)[C@@](O)(CC(=O)O)O[C@H]1[C@H](C)[C@H]1O[C@@]2(CC[C@@](C)([C@H]3CC[C@@](C)([C@@H]4O[C@@H]([C@H]5O[C@](C)(O)[C@H](C)C[C@@H]5C)C[C@@H]4OC4C[C@H](OC)[C@@H](OC)[C@H](C)O4)O3)O2)C[C@H](O)[C@H]1C` (some centres not stated), the IC50 was 0.252 µM.

Regarding `NC(=O)C1(N2CCCCC2)CCN(CCCN2c3ccccc3CCc3ccc(Cl)cc32)CC1`, the IC50 was 3.4 µM.

Regarding `O=NN(CCCl)C(=O)NC1CCCCC1`, the IC50 is > 10 µM (inactive).

Turning to `CCN(CC)CCNC(=O)c1c(C)[nH]c(/C=C2\C(=O)Nc3ccc(F)cc32)c1C`, the IC50 is 0.0254 µM.

Turning to `CCCOC(=O)c1cc(O)c(O)c(O)c1`, the IC50 is > 10 µM (inactive).

With `O=C1c2c(O)ccc(O)c2C(=O)c2c(NCCNCCO)ccc(NCCNCCO)c21`, the IC50 is 0.0044 µM.
